Read-outs that look alike come from different tables or passages of the source.
Target: Mtb Lpd (Mycobacterium tuberculosis (strain ATCC 25618 / H37Rv), UniProt P9WHH9)
Type: biochemical
[1] = 30 min preincubation, read-out: LPD IC50 (μM) w/ 30 min preincubation

| SMILES | IC50 (read-out: LPD IC50) [µM] | IC50 [1] [µM] |
| --- | --- | --- |
| Cc1cc(S(=O)(=O)N2CC[C@H]2C(=O)N[C@@H]2CCCOC2)c2[nH]ncc2c1 [Example 142, (2S)-1-[(5-methyl-1H-indazol-7-yl)sulfonyl]-N-[(3R)-tetrahydropyran-3-yl]azetidine-2-carboxamide] | 0.47 |  |
| Cc1cc(S(=O)(=O)N(C)CC(=O)Nc2ccn(C)c(=O)c2)c2[nH]c(C)cc2c1 [Example 134] | 0.963 |  |
| Cc1cc(S(=O)(=O)N(C)CC(=O)Nc2ccc3ccccc3n2)c2n[nH]cc2c1 [Example 64] | 0.0335 |  |
| Cc1cc(S(=O)(=O)N(CC(=O)Nc2ccn(C)c(=O)c2)C2COC2)c2[nH]ncc2c1 [Example 38, N-(1-methyl-2-oxo-1,2-dihydropyridin-4-yl)-2-((5-methyl-N-(oxetan-3-yl)-1H-indazole)-7-sulfonamido)acetamide] | 0.42 |  |
| CCN(CC(=O)Nc1ccc2c(c1)OCCN2C1COC1)S(=O)(=O)c1cc(C)cc2c[nH]nc12 [Example 155] | 0.0246 |  |
| Cc1cc(S(=O)(=O)N(C)CC(=O)NC2C(=O)N(C)c3ccccc32)c2n[nH]cc2c1 (stereo not shown) [Example 79] | 0.779 |  |
| Cc1cc(S(=O)(=O)N(C)CC(=O)N[C@@H]2CCCOC2)c2[nH]ncc2c1 [Example 113] | 0.184 |  |
| Cc1cc(S(=O)(=O)N(C)CC(=O)N[C@H]2CCCOC2)c2[nH]ncc2c1 [Example 112] | 0.109 |  |
| Cc1cc(S(=O)(=O)N(C)CC(=O)Nc2cc(=O)n(C)cn2)c2[nH]c(C#N)cc2c1 [Example 222] |  | 0.027 |
| Cc1ccc(CNC(=O)CN(C)S(=O)(=O)c2cc(C)cc3cn[nH]c23)cc1 [Example 111] | 0.0522 |  |
| Cc1cc(S(=O)(=O)N(C)CC(=O)Nc2ccc3c(c2)OCCN3C2CCOCC2)c2[nH]ncc2c1 [Example 89] | 0.0419 |  |
| CCc1cc(S(=O)(=O)N(C)CC(=O)Nc2ccn(C)c(=O)c2)c2n[nH]cc2c1 [Example 117, 2-((5-ethyl-N-methyl-1H-indazole)-7-sulfonamido)-N-(1-methyl-2-oxo-1,2-dihydropyridin-4-yl)acetamide] | 0.05 |  |
| Cc1cc(S(=O)(=O)N2CC[C@H]2C(=O)Nc2ccc(C#N)c(Cl)c2)c2[nH]ncc2c1 [Example 86] | 0.0414 |  |
| Cc1cc(S(=O)(=O)N2CC[C@H]2C(=O)NC2CCc3ccccc32)c2[nH]ncc2c1 (stereo partly shown) [Example 138] | > 10 |  |
| Cc1cc(S(=O)(=O)N(C)CC(=O)NC2(C)CCCCC2)c2n[nH]cc2c1 [Example 127] | 1.14 |  |
| Cc1cc(S(=O)(=O)N(C)CC(=O)Nc2nc3cnccc3s2)c2n[nH]cc2c1 [Example 115] | 0.0276 |  |
| Cc1cc(S(=O)(=O)N2CCC2C(=O)NCc2ccccc2)c2[nH]ncc2c1 (stereo not shown) [Example 81] | 0.62 |  |
| Cc1cc(S(=O)(=O)N(C)CC(=O)NC2CCOCC2)c2n[nH]cc2c1 [Example 65] | 0.118 |  |
| Cc1cc(S(=O)(=O)N(C)CC(=O)NCc2ccccc2C)c2[nH]ncc2c1 [Example 109] | 0.107 |  |
| Cc1cc(S(=O)(=O)N2CC[C@H]2C(=O)NC2CCCN(C)C2)c2[nH]ncc2c1 (stereo partly shown) [Example 135-R] | 2.65 |  |
| Cc1cc(S(=O)(=O)N2CC[C@H]2C(=O)Nc2cc3ccccc3cn2)c2[nH]ncc2c1 [Example 82] | 0.0489 |  |

| SMILES | IC50 (read-out: LPD IC50) [µM] | IC50 [1] [µM] |
| --- | --- | --- |
| Cc1cc(S(=O)(=O)N(C)CC(=O)Nc2cc3ccccc3cn2)c2n[nH]cc2c1 [Example 67] | 0.0372 |  |
| Cc1cc(S(=O)(=O)N(C)CC(=O)NC2CCCCC2)c2n[nH]cc2c1 [Example 73] | 0.0858 |  |
| Cc1cc(S(=O)(=O)N(C)CC(=O)Nc2ccn(C)c(=O)c2)c2[nH][nH]c(=O)c2c1 [Example 133, 2-((N,5-dimethyl-3-oxo-2,3-dihydro-1H-indazole)-7-sulfonamido)-N-(1-methyl-2-oxo-1,2-dihydropyridin-4-yl)acetamide] | 0.0706 |  |
| Cc1cc(S(=O)(=O)N2CC[C@H]2C(=O)Nc2ccn3nccc3c2)c2[nH]ncc2c1 [Example 91] | 0.041 |  |
| Cc1cc(S(=O)(=O)N(C)CC(=O)NCc2cn(C)nn2)c2[nH]ncc2c1 [Example 108] | 0.111 |  |
| Cc1cc(S(=O)(=O)N2CC[C@H]2C(=O)N[C@H]2CCCOC2)c2[nH]ncc2c1 [Example 141, (2S)-1-[(5-methyl-1H-indazol-7-yl)sulfonyl]-N-[(3S)-tetrahydropyran-3-yl]azetidine-2-carboxamide] | 0.811 |  |
| Cc1cc(S(=O)(=O)N2CC[C@H]2C(=O)NC2CCCCC2)c2[nH]ncc2c1 [Example 70, (S)—N-cyclohexyl-1-((5-methyl-1H-indazol-7-yl)sulfonyl)azetidine-2-carboxamide] | 0.279 |  |
| Cc1cc(S(=O)(=O)N(C)CC(=O)Nc2ccn(C)c(=O)c2)c2[nH]nc(C#N)c2c1 [Example 182, 2-((3-cyano-N,5-dimethyl-1H-indazole)-7-sulfonamido)-N-(1-methyl-2-oxo-1,2-dihydropyridin-4-yl)acetamide] | 0.724 |  |
| Cc1cc(S(=O)(=O)N(C)CC(=O)Nc2nc3c(s2)CCN(C)C3)c2n[nH]cc2c1 [Example 137, 2-(N,5-dimethyl-1H-indazole-7-sulfonamido)-N-(5-methyl-4,5,6,7-tetrahydrothiazolo[4,5-c]pyridin-2-yl)acetamide] | 0.025 |  |
| Cc1cc(S(=O)(=O)N(C)CC(=O)NC2CCCOC2)c2n[nH]cc2c1 (stereo not shown) [Example 54] | 0.0906 |  |
| Cc1cc(S(=O)(=O)N2CCC[C@@H](C(=O)Nc3ccn(C)c(=O)c3)C2)c2[nH]ncc2c1 [Example 96, (R)-1-((5-methyl-1H-indazol-7-yl)sulfonyl)-N-(1-methyl-2-oxo-1,2-dihydropyridin-4-yl)piperidine-3-carboxamide] | 0.112 |  |
| Cc1cc(S(=O)(=O)N(C)CC(=O)NC2CCCN(C)C2)c2n[nH]cc2c1 (stereo not shown) [Example 66] | 0.593 |  |
| Cc1cc(S(=O)(=O)N2CC[C@H]2C(=O)NC2CCCN(C)C2)c2[nH]ncc2c1 (stereo partly shown) [Example 135-S] | 5.87 |  |
| CN(CC(=O)Nc1ccn(C)c(=O)c1)S(=O)(=O)c1cc(C2(O)CC2)cc2cn[nH]c12 [Example 172, 2-((5-(1-hydroxycyclopropyl)-N-methyl-1H-indazole)-7-sulfonamido)-N-(1-methyl-2-oxo-1,2-dihydropyridin-4-yl)acetamide] | 0.654 |  |
| Cc1cc(S(=O)(=O)N2CCC(C(=O)Nc3ccc4c(c3)OCCN4C)C2)c2[nH]ncc2c1 (stereo not shown) [Example 120] | 0.0197 |  |
| Cc1cc(S(=O)(=O)N(C)CC(=O)Nc2ccc(N3CCOCC3)c(Cl)c2)c2[nH]ncc2c1 [Example 126] | 0.019 | 0.015 |
| Cc1cc(S(=O)(=O)N(C)CC(=O)Nc2ccc3c(c2)CCCO3)c2[nH]c(C#N)cc2c1 [Example 221] |  | 0.015 |
| Cc1cc(S(=O)(=O)N(C)CC(=O)Nc2ccn3nc(C)cc3c2)c2[nH]ncc2c1 [Example 104] | 0.157 |  |
| Cc1cc(S(=O)(=O)N(C)CC(=O)NC2CCc3cnccc32)c2n[nH]cc2c1 (stereo not shown) [Example 114] | 0.0954 |  |
| Cc1cc(S(=O)(=O)N2CCC(C(=O)Nc3ccn(C)c(=O)c3)C2)c2[nH]ncc2c1 (stereo not shown) [Example 213] | 1.92 |  |
| COc1ccc(NC(=O)CN(C)S(=O)(=O)c2cc(C)cc3c[nH]nc23)nc1 [Example 60] | 0.0415 |  |

| SMILES | IC50 (read-out: LPD IC50) [µM] | IC50 [1] [µM] |
| --- | --- | --- |
| Cc1cc(S(=O)(=O)N(C)CC(=O)NC2CCN(C)C(=O)C2)c2n[nH]cc2c1 (stereo not shown) [Example 68] | 0.149 |  |
| Cc1cc(S(=O)(=O)N(C)CC(=O)Nc2ccc3c(c2)OCCN3C(C)C)c2n[nH]cc2c1 [Example 157] | 0.014 |  |
| CC#CCN(C)C(=O)CN(C)S(=O)(=O)c1cc(C)cc2cc(C#N)[nH]c12 [Example 226] |  | 0.368 |
| Cc1cc(S(=O)(=O)N2CC[C@H]2C(=O)NC2CCc3ccccc32)c2[nH]ncc2c1 (stereo partly shown) [Example 131] | 2.52 |  |
| Cc1cc(S(=O)(=O)N(C)CC(=O)NC2CCN(C)CC2)c2n[nH]cc2c1 [Example 53] | 0.963 |  |
| Cc1cc(S(=O)(=O)N(C)CC(=O)N[C@H]2CCc3ccccc32)c2n[nH]cc2c1 [Example 55] | 0.874 |  |
| Cc1cc(S(=O)(=O)N(C)CC(=O)Nc2ccn3c(C(F)(F)F)ncc3c2)c2n[nH]cc2c1 [Example 130] | 0.0345 |  |
| CCCc1cc(S(=O)(=O)N(C)CC(=O)Nc2ccn(C)c(=O)c2)c2[nH]ncc2c1 [Example 118] | 0.0702 |  |
| Cc1cc(S(=O)(=O)N(C)CC(=O)Nc2ccn3nccc3c2)c2[nH]c(C#N)cc2c1 [Example 220] |  | 0.019 |
| Cc1cccc(CNC(=O)CN(C)S(=O)(=O)c2cc(C)cc3c[nH]nc23)c1 [Example 110] | 0.041 |  |
| C/C=C/CNC(=O)CN(C)S(=O)(=O)c1cc(C)cc2cc(C#N)[nH]c12 [Example 227] |  | 0.018 |
| Cc1cc(S(=O)(=O)N2CC[C@H]2C(=O)NC2COC2)c2[nH]ncc2c1 [Example 80] | 0.285 |  |
| Cc1cc(S(=O)(=O)N2CC[C@H]2C(=O)Nc2ccc3ccccc3n2)c2[nH]ncc2c1 [Example 84] | 0.027 |  |
| Cc1cc(S(=O)(=O)N(C)CC(=O)Nc2nc3ccccc3s2)c2n[nH]cc2c1 [Example 58] | 0.0315 |  |
| Cc1cc(S(=O)(=O)N(C)CC(=O)N[C@@H]2CCc3ccccc32)c2n[nH]cc2c1 [Example 56] | 0.0426 |  |
| Cc1cc(S(=O)(=O)N(C)CC(=O)Nc2nc3c(s2)CCOC3)c2n[nH]cc2c1 [Example 116] | 0.0771 |  |
| Cc1cc(S(=O)(=O)N2CC[C@H]2C(=O)NC2CCOCC2)c2[nH]ncc2c1 [Example 128] | 1.07 |  |
| Cc1cc(S(=O)(=O)N(C)CC(=O)Nc2cc(C)n(C)c(=O)c2)c2[nH]ncc2c1 [Example 17, 2-((N,5-dimethyl-1H-indazole)-7-sulfonamido)-N-(1,6-dimethyl-2-oxo-1,2-dihydropyridin-4-yl)acetamide] | 0.052 |  |
| Cc1cc(S(=O)(=O)N(C)CC(=O)Nc2ccn(C)c(=O)c2)c2nn[nH]c2c1 [Example 132, 2-((N,5-dimethyl-1H-benzo[d][1,2,3]triazole)-7-sulfonamido)-N-(1-methyl-2-oxo-1,2-dihydropyridin-4-yl)acetamide] | 0.386 |  |
| Cc1cc(S(=O)(=O)N(C)CC(=O)NC2C(=O)Nc3ccccc32)c2n[nH]cc2c1 (stereo not shown) [Example 77] | 0.803 |  |
| Cc1cc(S(=O)(=O)N2CC[C@@H](C(=O)Nc3ccc(N4CCOCC4)c(Cl)c3)C2)c2n[nH]cc2c1 [Example 119] | 0.0348 |  |
